Columns and labels:
[1] = system: Poliovirus Sabin (Type 2H.010704); type: cell-based
[2] = system: RD cell line (human rhabdomyosarcoma)

OCl [Hypochlorite, Sodium hypochlorite]
infectivity score, virus added [1]: N | cytotoxicity score, no virus added [2]: N

— patent US20120020946A1, “Methods for Inactivating Viruses” (priority 2009, published 2012)
